Assay results: paper PMC10487436, “Towards Anticancer and Antibacterial Agents: Design and Synthesis of 1,2,3-Triazol-quinobenzothiazine Derivatives” (International Journal of Molecular Sciences, 2023)
Converted amounts (≈) assume the structure as drawn.

Experiments:
[1] = system: Mycobacterium smegmatis ATCC 700084; assay: MIC, broth dilution micro-method, MS; format: cell-based; details: Mycolicibacterium smegmatis, ATCC700084, 72 h; 3 days at 37 °C
[2] = system: Mycobacterium marinum CAMP 5644; assay: MIC, broth dilution micro-method, MM; format: cell-based; details: CAMP5644, 504 h, 21 days at 28 °C
[3] = system: Mycobacterium smegmatis ATCC 700084; assay: MBC, agar aliquot subculture method, MS; format: cell-based; details: Mycolicibacterium smegmatis, ATCC700084
Method: (§1) For the above-mentioned strains/isolates, the agar aliquot subculture method was used as a test for bactericidal agents. After the MIC value determination, the inoculum was transferred to CaMH (Oxoid) for staphylococci, BHI (Oxoid) for enterococci, and Middlebrook 7H9 (Difco) for mycobacteria medium using a multipoint inoculator. As indicated above, the plates were incubated on a thermostat at 37 °C for the appropriate time for each micro-organism. The lowest concentration of test compound at which ≤5 colonies were obtained was then evaluated as MBC, corresponding to a 99.9% decrease in CFU relative to the original inoculum.

[4] = system: Mycobacterium marinum CAMP 5644; assay: MBC, agar aliquot subculture method, MM; format: cell-based; details: CAMP5644
Method: as §1

[5] = system: Mycobacterium smegmatis ATCC 700084; details: 3 days; for Conc.: lowest multiple of MBC with at least 70% inhibition of respiratory activity / Conc.: lowest multiple of MIC with at least 70% inhibition of respiratory activity: MTT
[6] = system: SNB-19 (human glioblastoma); assay: WST-1 proliferation assay, SNB-19; format: cell-based
Method: (§2) Compounds were evaluated for their antiproliferative activity using three cultured cell lines: A549 (human lung carcinoma, ATCC, Manassas, VA, USA), SNB-19 (human glioblastoma, DSMZ, German Collection of Microorganisms and Cell Cultures), T-47D (human breast cancer, ATCC, Manassas, VA, USA), and NHDF (normal human dermal fibroblasts, ATCC, Manassas, VA, USA). The cultured cells were kept at 37 °C and 5% CO2. The cells were seeded (1 × 10^4 cells/well/100 μL DMEM supplemented with 10% FCS, streptomycin, and penicillin) using 96-well plates (corning). Cells were counted in a hemocytometer (Burker chamber) using a phase contrast Olympus IX50 microscope equipped with a Sony SSC-DC58 AP camera and an Olympus DP10 digital camera.
(§3) The antiproliferative effect of the compounds exerted on cancer and normal cells was determined using the Cell Proliferation Reagent WST-1 assay (Roche Molecular Biochemicals, Mannheim, Germany). This assay is based on a colorimetric method using the enzymatic ability of viable cells to cause the bright, red-colored stable tetrazolium monosodium salt [2-(4-iodophenyl)-3-(4-nitrophenyl)-5-(2,4-disulfophenyl)–2H-tetra-zolium] to transform into the dark, red-colored soluble formazan. […] An increase in the amount of formazan dye formed correlated with the number of metabolically active cells in the culture. The formazan dye produced by metabolically active cells was quantified by absorbance readings at appropriate wavelengths. The examined cells were exposed to the tested compounds (1 mM DMSO stock) for 72 h at various concentrations (0.1–100 μM). The control was performed in order to eliminate the DMSO effect at the concentration used. Cell cultures were incubated with WST-1 (10 μL) for 1 h. The absorbance of the samples was measured against a background control at 450 nm using a microplate reader with a reference wavelength at 600 nm. The obtained results are expressed as the means of at least two independent experiments performed in triplicate. The antiproliferative activity of the tested compounds was compared to that of cisplatinum. The values of IC50 (a concentration of a compound that is required for 50% inhibition) were calculated from the dose-response relationship with respect to control. The results were reported as the mean (±std) of three separate experiments.

[7] = system: A549 (human lung carcinoma); assay: WST-1 proliferation assay, A549; format: cell-based
Method: as §2, §3

[8] = system: T-47D (human breast cancer); assay: WST-1 proliferation assay, T47D; format: cell-based; details: 72 h exposure
Method: as §2, §3

[9] = system: NHDF (normal human dermal fibroblasts); assay: WST-1 proliferation assay, NHDF; format: cell-based; details: normal cells, 72 h exposure
Method: as §2, §3

[10] = system: Staphylococcus aureus ATCC 29213; assay: MIC, microtitration broth method, SA; format: cell-based; details: ATCC29213, 24 h at 37 °C
Method: (§4) In vitro antibacterial activity of the synthesized compounds was evaluated against representatives of multidrug-resistant bacteria, three clinical isolates of methicillin-resistant S. aureus: clinical isolates of animal origin, MRSA 63718 (Department of Infectious Diseases and Microbiology, Faculty of Veterinary Medicine, University of Veterinary Sciences Brno, Czech Republic), carrying the mecA gene; and MRSA SA 630 and MRSA SA 3202 [52] (National Institute of Public Health, Prague, Czech Republic), both of human origin. […] Vancomycin- and methicillin-susceptible S. aureus ATCC 29213 and vancomycin-susceptible Enterococcus faecalis ATCC 29212, obtained from the American Type Culture Collection, were used as the reference and quality control strains. Three vanA gene-carrying vancomycin-resistant isolates of E. faecalis (VRE 342B, VRE 368, VRE 725B) were provided by Oravcova et al..
(§5) The minimum inhibitory concentrations (MICs) were evaluated by the microtitration broth method according to the CLSI, with some modifications. The compounds were dissolved in DMSO (Sigma, St. Louis, MO, USA) to obtain a concentration of […] and diluted in a microtitration plate in an appropriate medium, i.e., Cation Adjusted Mueller–Hinton Broth (CaMH, Oxoid, Basingstoke, UK) for staphylococci, and Brain Heart Infusion Broth (BHI, Oxoid) for enterococci, to reach the final concentration of 256–0.125 µg/mL. Microtiter plates were inoculated with test micro-organisms so that the final concentration of bacterial cells was 10^5. […] A drug-free control and a sterility control were included. The plates were incubated for 24 h at 37 °C for staphylococci and enterococci. […] The experiments were repeated three times.

[11] = system: methicillin-resistant S. aureus SA 3202; assay: MIC, microtitration broth method, MRSA1; format: cell-based; details: Staphylococcus aureus; 24 h at 37 °C
Method: as §4, §5

[12] = system: methicillin-resistant S. aureus SA 630; assay: MIC, microtitration broth method, MRSA2; format: cell-based; details: Staphylococcus aureus; 24 h at 37 °C
Method: as §4, §5

[13] = system: methicillin-resistant S. aureus 63718; assay: MIC, microtitration broth method, MRSA3; format: cell-based; details: Staphylococcus aureus; 24 h at 37 °C
Method: as §4, §5

[14] = system: Enterococcus faecalis ATCC 29213; assay: MIC, microtitration broth method, EF; format: cell-based; details: ATCC29213, 24 h at 37 °C
[15] = system: vancomycin-resistant E. faecalis VRE 342B; assay: MIC, microtitration broth method, VRE1; format: cell-based; details: Enterococcus faecalis, 24 h at 37 °C
Method: as §4, §5

[16] = system: vancomycin-resistant E. faecalis VRE 368; assay: MIC, microtitration broth method, VRE2; format: cell-based; details: Enterococcus faecalis, 24 h at 37 °C
Method: as §4, §5

[17] = system: vancomycin-resistant E. faecalis VRE 725B; assay: MIC, microtitration broth method, VRE3; format: cell-based; details: Enterococcus faecalis, 24 h at 37 °C
Method: as §4, §5

[18] = system: methicillin-resistant S. aureus 63718; assay: MBC, agar aliquot subculture method, MRSA3; format: cell-based; details: Staphylococcus aureus
Method: as §1

[19] = Homo sapiens, SNB-19, 72 h exposure
[20] = Homo sapiens, A549, 72 h exposure

Compound	MIC [1] [µM]	MIC [2] [µM]	IC50 [6, 19] [µM]	IC50 [7, 20] [µM]	IC50 ([8]; Homo sapiens, T47D) [µM]	MIC [10] [µM]	MIC [11] [µM]	MIC [12] [µM]	MIC [13] [µM]	MIC [14] [µM]	MIC [15] [µM]	MIC [16] [µM]	MIC [17] [µM]	MBC [3] [µM]	MBC [4] [µM]	Conc.: lowest multiple of MBC with at least 70% inhibition of respiratory activity [5]	Conc.: lowest multiple of MIC with at least 70% inhibition of respiratory activity [5]	IC50 ([9]; Homo sapiens, NHDF) [µM]	other results
O=C(O)c1cn(C2CC2)c2cc(N3CCNCC3)c(F)cc2c1=O [CPX, ciprofloxacin, reference compound]	0.38 (≈ 0.126 µg/mL)	0.38 (≈ 0.126 µg/mL)	–	–	–	–	–	–	–	–	–	–	–	0.38 (≈ 0.126 µg/mL)	0.38 (≈ 0.126 µg/mL)	32× MIC (32× MBC)	32× MIC (32× MBC)	–	–
N.N.[Cl][Pt][Cl] [CIS, cisplatin, reference compound]	–	–	–	–	–	–	–	–	–	–	–	–	–	–	–	–	–	–	IC50 ([6]; 72 h exposure): 16.7 ± 1.3 µM; IC50 ([7]; 72 h exposure): 3 ± 0.2 µM; IC50 [8]: 9 ± 0.7 µM; IC50 [9]: 29.9 ± 3.3 µM

Continued, in another order:

MIC [1] [µM]	MIC [2] [µM]	IC50 [6, 19] [µM]	IC50 [7, 20] [µM]	IC50 ([8]; Homo sapiens, T47D) [µM]	MIC [10] [µM]	MIC [11] [µM]	MIC [12] [µM]	MIC [13] [µM]	MIC [14] [µM]	MIC [15] [µM]	MIC [16] [µM]	MIC [17] [µM]	Compound	MBC [3] [µM]	MBC [4] [µM]	Conc.: lowest multiple of MBC with at least 70% inhibition of respiratory activity [5]	Conc.: lowest multiple of MIC with at least 70% inhibition of respiratory activity [5]	IC50 ([9]; Homo sapiens, NHDF) [µM]	other results
–	–	> 100	> 100	> 100	–	–	–	–	–	–	–	–	Nc1cccc(OCc2cn(Cc3ccc([N+](=O)[O-])cc3)nn2)c1 [5h, 1-(4-nitrobenzyl)-4-(3-aminophenoxy)methyl-1H-1,2,3-triazole]	–	–	–	–	> 100	–
–	–	> 100	> 100	> 100	–	–	–	–	–	–	–	–	Nc1ccc(OCc2cn(Cc3ccccc3)nn2)cc1 [5f, 1-benzyl-4-(4-aminophenoxy)methyl-1H-1,2,3-triazole]	–	–	–	–	> 100	–
16.3	32.7	42.9 ± 1.8	14.3 ± 0.8	15.4 ± 1.1	> 524	> 524	> 524	262	> 524	> 524	> 524	> 524	C[n+]1cc2c(c3ccccc31)Nc1cc(OCc3cn(-c4ccc(Cl)cc4)nn3)ccc1S2 [2n, 5-Methyl-10-(1-(4-chlorophenyl)-1H-1,2,3-triazol-4-yl)methoxy-12H-quino [3,4-b][1,4]benzothiazinium chloride]	16.3	32.7	1× MIC (1× MBC)	1× MIC (1× MBC)	> 100	MBC [18]: 262 µM; viability of M. smegmatis at MIC value ([5]; Mycobacterium smegmatis): less than 70%; M. smegmatis Respiration Inhibition ([5]; at the concentration (lowest multiple of MIC with at least 70% inhibition)): 85.9%
65.5	65.5	8.5 ± 0.5	11.5 ± 0.6	20.5 ± 1.4	> 524	> 524	> 524	524	> 524	> 524	> 524	> 524	C[n+]1cc2c(c3ccccc31)Nc1c(OCc3cn(Cc4ccccc4)nn3)cccc1S2 [2f, 5-Methyl-11-(1-benzyl-1H-1,2,3-triazol-4-yl)methoxy-12H-quino [3,4-b][1,4]benzothiazinium chloride]	65.5	65.5	–	–	30.5 ± 2.1	–
